Measured values taken from the OPERA property sets (Mansouri et al. 2018).

Settings: for log10 BCF / log10 biotransformation half-life (days): fish

Row | Structure (SMILES) | melting point [°C] | boiling point [°C] | other results
1 | c1csc(-c2ccc(-c3cccs3)s2)c1 | 93.5 | – | –
2 | C=CC(F)(F)Br | – | 42 | –
3 | COc1cc(C)c(/C=C/C(C)=C/C=C/C(C)=C/C(=O)O)c(C)c1C | 229 | – | –
4 | COc1ccc2c(OC(C)=O)c(OC)c(OC)c(OC(C)=O)c2c1 | 77.5 | – | –
5 | Nc1ccc(/N=N/c2ccccc2)cc1 | 127 | 366 | log10 Koc (L/kg): 2.79; log10 vapour pressure (mmHg): -5.85; ready biodegradability: not readily biodegradable
6 | COP(=S)(OC)Oc1ccc(C#N)cc1 | 14.5 | – | log10 vapour pressure (mmHg): -3.1; ready biodegradability: not readily biodegradable; log10 BCF: 1.56; log10 biotransformation half-life (days): 0.23
7 | CCOC(=O)CCC(=O)OCC | -21 | 218 | log10 vapour pressure (mmHg): -1.36
8 | CCC(CC)C(C)C(C)C (stereo unspecified) | – | 162 | –
9 | CCOC(=O)CCC(C)C | – | 163 | –
10 | CCCCNC(=O)n1cc(F)c(=O)[nH]c1=O | 136 | – | –
11 | CC(C)(C)c1ccc(C(C)(C)C)cc1 | 79.5 | 238 | –
12 | Cc1cc(C)c(N(C)C)c(C)c1 | – | 214 | –
13 | CC(C)C1=CC2=CC[C@@H]3[C@](C)(CCC[C@@]3(C)C(=O)O)[C@H]2CC1 | 174 | – | ready biodegradability: not readily biodegradable; log10 BCF: 1.97
14 | COc1ccc(N=C=S)cc1 | 18 | 280 | –
15 | CCCC(C)(C)C(=O)Nc1ccc(Cl)cc1 | 87.5 | – | –
16 | CC(=O)C=CC=Cc1ccccc1 | 68 | – | –
17 | Nc1ccc(F)c(Cl)c1 | 45.5 | 228 | –
18 | O=C(O)C1CCCN1 (racemic) | 205 | – | –
19 | CCCCCCCCCCCCCCCC(=O)OC | 30 | – | log10 vapour pressure (mmHg): -4.33
20 | Cc1cc(C(C)C)ccc1O | 8.6 | 230 | –
21 | O=C(O)/C=C/c1c[nH]cn1 | 225 | – | –

Row | Structure (SMILES) | melting point [°C] | boiling point [°C] | other results
22 | NCCCCCCO | 57 | – | log10 vapour pressure (mmHg): -2.62
23 | Cc1cc(Cl)c(Cl)c(Cl)c1 | 45.5 | 246 | –
24 | FC1=C(F)C(F)(F)C(F)(F)C(F)(F)C1(F)F | – | 52 | –
25 | CC(C)c1cccc(O)c1 | 26 | 228 | log10 vapour pressure (mmHg): -1.16
26 | O=c1oc(=O)c2cc3c(=O)oc(=O)c3cc12 | – | – | ready biodegradability: readily biodegradable
27 | O=C(Nc1ccc(Oc2ccc(Cl)cc2)c(Cl)c1)c1cc(I)cc(I)c1O | 169 | – | –
28 | CC(C)(C#N)C#N | 31.5 | 170 | log10 vapour pressure (mmHg): 0.16
29 | CCCCCCCCCCCCCCCCCCCCCl | – | – | log10 vapour pressure (mmHg): -5.62
30 | C[C@@H]1CC[C@H](O)C1 | – | 148 | –
31 | OCC(F)(F)C(F)(F)F | – | 82 | log10 Henry constant (atm·m³/mol): -4.65; log10 vapour pressure (mmHg): 1.66
32 | CCCC(=O)C(=O)O | 6.5 | 179 | –
33 | Sc1ccccn1 | 129 | – | –
34 | COC1=C(OC)C(=O)C(C)=C(C)C1=O | 62.5 | – | –
35 | CCCCOCCO | -74.8 | 168 | log10 Henry constant (atm·m³/mol): -5.8; log10 Koc (L/kg): 1.83; log10 vapour pressure (mmHg): -0.0555; ready biodegradability: readily biodegradable
36 | CCNc1nc(Cl)nc(NCC(=O)OCC)n1 | 228 | – | –
37 | c1ccc(-c2cc(-c3ccccc3)cc(-c3ccccc3)c2)cc1 | 176 | 462 | –
38 | Clc1cc(Cl)c2c(Cl)c(Cl)cc(Cl)c2c1Cl | – | – | log10 Koa: 9.69; log10 vapour pressure (mmHg): -6.46
39 | CC=COCC | – | 71.5 | –
40 | CCCC[C@@H](O)CC | – | – | log10 vapour pressure (mmHg): -0.131
41 | CS/C(C)=N/OC(=O)N(C)SN(C)C(=O)O/N=C(\C)SC | 173 | – | log10 Koc (L/kg): 2.54; log10 vapour pressure (mmHg): -4.15
42 | C=CCOC(=O)CC | – | 124 | –

Row | Structure (SMILES) | melting point [°C] | boiling point [°C] | other results
43 | ClCC(Cl)(Cl)C(Cl)(Cl)Cl | 26 | 216 | –
44 | COC(=O)/C=C(\C)OP(=O)(OC)OC | 21 | – | log10 vapour pressure (mmHg): -3.91
45 | Brc1cc(Br)c(-c2c(Br)cc(Br)cc2Br)c(Br)c1 | – | – | log10 Koc (L/kg): 4.87; log10 BCF: 4.66; log10 biotransformation half-life (days): 2.66
46 | CCC(=O)O[C@]1(C(=O)CCl)[C@@H](C)C[C@H]2[C@@H]3CCC4=CC(=O)C=C[C@]4(C)[C@@]3(F)[C@@H](O)C[C@@]21C | 196 | – | –
47 | O=C(O)c1ccccc1C(F)(F)F | 111 | – | –
48 | COC(=O)c1ccccc1OC | – | 246 | –
49 | C[C@H](N[C@@H](C)c1ccccc1)c1ccccc1 | – | 296 | –
50 | CCOCCOCCOCC | -45 | 188 | log10 vapour pressure (mmHg): -0.284
51 | Nc1ccc(S(N)(=O)=O)cc1 | – | – | ready biodegradability: not readily biodegradable
52 | O=C(C[N+](=O)[O-])Nc1ccccc1 | 94 | – | –
53 | Cc1cccc(C)n1 | -6.1 | 144 | log10 Henry constant (atm·m³/mol): -4.98; log10 vapour pressure (mmHg): 0.752
54 | CC(C)NCC(O)COc1cccc2c1C=CC2 (stereo unspecified) | 88.5 | – | –
55 | OCC1CCCC1 | – | 163 | –
56 | C[Si](C)(C)C#C[Si](C)(C)C | 26 | 134 | –
57 | C=COCCCCCCCCCC | -41 | – | –
58 | Cc1cc(O)c2c(c1)C(=O)c1cc(O)cc(O)c1C2=O | 257 | – | –
59 | NC(=O)OCC(COC(N)=O)c1ccccc1 | 152 | – | –
60 | Cc1ccoc1 | – | 66 | –
61 | O=C1c2ccccc2N(C(=O)CN2CCOCC2)CN1c1ccccc1 | 136 | – | –
